Reference: ChEMBL document CHEMBL3992518, “Peptide Macrocycle Inhibitor of Coagulation Factor XII with Subnanomolar Affinity and High Target Selectivity” (J Med Chem, 2017)
The source made the active and inactive calls. No cut-off for these calls is given here.

Assays:
[1] = target: Urokinase-type plasminogen activator (Homo sapiens) (UniProt P00749); assay: Inhibition of human uPa at 40 uM using fluorogenic substrate Z-Gly-Gly-Arg-AMC
Homo sapiens [2] = species on record: Homo sapiens; assay: Selectivity for human beta factor 12a over human plasma kallikrein
[3] = target: Coagulation factor X (Homo sapiens) (UniProt P00742); assay: Inhibition of human factor 10a at 40 uM using fluorogenic substrate D-Phe-Pro-Arg-ANSNH-C4H9
Homo sapiens [4] = species on record: Homo sapiens; assay: Inhibition of human trypsin at 40 uM using fluorogenic substrate Z-Gly-Gly-Arg-AMC
[5] = target: Prothrombin (Homo sapiens) (UniProt P00734); assay: Inhibition of human thrombin at 40 uM using fluorogenic substrate Z-Gly-Gly-Arg-AMC
Coagulation factor XII = target: T1, Coagulation factor XII (Homo sapiens, UniProt P00748); assay: Inhibition of human beta factor 12a using fluorogenic substrate Boc-Gln-Gly-Arg-AMC preincubated for 10 mins followed by addition of substrate measured every min for 30 mins
T1 sequence (P00748 whole entry): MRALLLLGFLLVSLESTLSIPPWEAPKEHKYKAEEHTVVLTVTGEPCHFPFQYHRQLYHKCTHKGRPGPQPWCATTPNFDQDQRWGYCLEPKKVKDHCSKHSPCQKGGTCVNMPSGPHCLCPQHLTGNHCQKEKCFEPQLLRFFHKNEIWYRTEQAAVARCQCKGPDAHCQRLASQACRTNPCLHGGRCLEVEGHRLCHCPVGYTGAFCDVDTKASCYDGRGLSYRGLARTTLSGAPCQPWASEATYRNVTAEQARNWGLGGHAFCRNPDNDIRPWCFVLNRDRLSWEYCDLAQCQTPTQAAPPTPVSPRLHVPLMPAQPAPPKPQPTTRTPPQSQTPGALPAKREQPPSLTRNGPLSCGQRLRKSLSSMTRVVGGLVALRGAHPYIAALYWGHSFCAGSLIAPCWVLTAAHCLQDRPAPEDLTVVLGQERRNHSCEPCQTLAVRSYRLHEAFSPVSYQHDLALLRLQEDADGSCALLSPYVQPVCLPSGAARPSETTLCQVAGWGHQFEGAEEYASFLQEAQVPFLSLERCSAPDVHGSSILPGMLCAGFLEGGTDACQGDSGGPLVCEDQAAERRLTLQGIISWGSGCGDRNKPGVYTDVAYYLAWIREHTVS

Homo sapiens [6] = species on record: Homo sapiens; assay: Selectivity for human beta-factor 12a over human uPa
[7] = target: Tissue-type plasminogen activator (Homo sapiens) (UniProt P00750); assay: Inhibition of human tPa at 40 uM using fluorogenic substrate Z-Gly-Gly-Arg-AMC
Homo sapiens [8] = species on record: Homo sapiens; assay: Selectivity for human beta-factor 12a over human plasmin
[9] = Half life in human citrated plasma at 10 uM by mass spectrophotometric analysis; type: ADME, cell-free
Homo sapiens [10] = species on record: Homo sapiens; assay: Selectivity for human beta-factor 12a over human factor 10a
[11] = Inhibition of human trypsin using fluorogenic substrate Z-Gly-Gly-Arg-AMC
Homo sapiens [12] = species on record: Homo sapiens; assay: Selectivity for human beta-factor 12a over human factor 11a
[13] = target: T2, Coagulation factor VII (Homo sapiens) (UniProt P08709); assay: Inhibition of human factor 7a at 40 uM using fluorogenic substrate D-Phe-Pro-Arg-ANSNH-C4H9
T2 sequence (whole entry): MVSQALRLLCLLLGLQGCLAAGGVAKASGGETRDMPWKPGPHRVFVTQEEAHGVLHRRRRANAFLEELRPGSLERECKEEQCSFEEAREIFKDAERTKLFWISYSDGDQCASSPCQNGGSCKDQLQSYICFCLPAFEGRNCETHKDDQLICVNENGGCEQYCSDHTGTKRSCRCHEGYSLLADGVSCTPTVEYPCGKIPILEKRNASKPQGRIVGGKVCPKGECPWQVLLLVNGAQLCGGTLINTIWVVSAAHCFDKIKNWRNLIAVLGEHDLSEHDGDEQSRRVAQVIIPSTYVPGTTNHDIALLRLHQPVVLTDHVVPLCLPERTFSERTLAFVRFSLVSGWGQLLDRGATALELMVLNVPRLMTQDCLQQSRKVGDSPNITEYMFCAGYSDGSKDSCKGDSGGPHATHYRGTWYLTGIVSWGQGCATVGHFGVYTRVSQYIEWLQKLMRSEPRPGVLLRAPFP

Plasma kallikrein [14] = target: T3, Plasma kallikrein (Homo sapiens, UniProt P03952); assay: Inhibition of human plasma kallikrein at 40 uM using fluorogenic substrate Z-Phe-Arg-AMC
[15] = target: Coagulation factor XI (Homo sapiens) (UniProt P03951); assay: Inhibition of human factor 11a at 40 uM using fluorogenic substrate Boc-Phe-Ser-Arg-AMC
Homo sapiens [16] = species on record: Homo sapiens; assay: Selectivity for human beta-factor 12a over human factor 7a
Homo sapiens [17] = species on record: Homo sapiens; assay: Selectivity for human beta-factor 12a over human thrombin
Plasma [18] = assay: Anticoagulant activity in human plasma assessed as change in prothrombin time up to 40 uM by coagulation analyser; type: functional, cell-free
Homo sapiens [19] = species on record: Homo sapiens; assay: Selectivity for human beta-factor 12a over human tPa
Plasma [20] = assay: Anticoagulant activity in human plasma assessed as concentration required to double activated partial thromboplastin time by coagulation analyser; type: functional
[21] = target: Plasminogen (Homo sapiens) (UniProt P00747); assay: Inhibition of human plasmin at 40 uM using fluorogenic substrate H-D-Val-Leu-Lys-AMC
Plasma kallikrein [22] = target: T3, Plasma kallikrein; assay: Inhibition of human plasma kallikrein using fluorogenic substrate Z-Phe-Arg-AMC
Homo sapiens [23] = species on record: Homo sapiens; assay: Selectivity for human beta-factor 12a over human trypsin

T3 sequence (P03952 20-390 limits assumed): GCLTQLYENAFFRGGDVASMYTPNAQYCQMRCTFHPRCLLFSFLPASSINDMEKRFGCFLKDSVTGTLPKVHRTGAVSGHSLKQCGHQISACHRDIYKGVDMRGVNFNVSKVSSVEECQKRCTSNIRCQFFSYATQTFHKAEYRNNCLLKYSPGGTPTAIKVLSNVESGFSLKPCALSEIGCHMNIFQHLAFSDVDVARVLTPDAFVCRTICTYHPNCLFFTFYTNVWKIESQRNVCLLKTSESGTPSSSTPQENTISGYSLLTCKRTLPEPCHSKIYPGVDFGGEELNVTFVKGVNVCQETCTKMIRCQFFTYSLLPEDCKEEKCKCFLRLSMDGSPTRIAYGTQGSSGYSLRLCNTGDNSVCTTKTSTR
T3 sequence (P03952 391-638 limits assumed): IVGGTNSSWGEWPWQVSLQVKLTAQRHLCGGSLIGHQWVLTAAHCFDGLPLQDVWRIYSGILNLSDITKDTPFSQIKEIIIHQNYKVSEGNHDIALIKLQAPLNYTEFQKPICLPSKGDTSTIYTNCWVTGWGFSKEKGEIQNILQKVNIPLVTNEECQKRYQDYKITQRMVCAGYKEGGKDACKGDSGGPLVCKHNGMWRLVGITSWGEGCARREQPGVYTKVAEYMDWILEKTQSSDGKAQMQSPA
Sequence of Plasminogen (Homo sapiens) (P00747 97-580 limits assumed): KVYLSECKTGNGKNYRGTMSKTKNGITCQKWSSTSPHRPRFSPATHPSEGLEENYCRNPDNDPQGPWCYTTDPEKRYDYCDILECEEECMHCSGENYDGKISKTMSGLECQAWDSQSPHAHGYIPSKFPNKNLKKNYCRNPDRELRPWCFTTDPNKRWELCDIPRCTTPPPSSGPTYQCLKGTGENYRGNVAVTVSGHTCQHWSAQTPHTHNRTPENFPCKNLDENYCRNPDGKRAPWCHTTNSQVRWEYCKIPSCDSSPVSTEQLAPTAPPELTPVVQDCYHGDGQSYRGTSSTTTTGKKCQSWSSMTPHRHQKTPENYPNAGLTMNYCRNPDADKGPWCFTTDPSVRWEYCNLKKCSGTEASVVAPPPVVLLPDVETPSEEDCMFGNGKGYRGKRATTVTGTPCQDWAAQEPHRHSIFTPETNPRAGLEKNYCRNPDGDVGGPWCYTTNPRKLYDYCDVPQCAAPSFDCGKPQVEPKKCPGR
Sequence of Plasminogen (Homo sapiens) (P00747 581-810 limits assumed): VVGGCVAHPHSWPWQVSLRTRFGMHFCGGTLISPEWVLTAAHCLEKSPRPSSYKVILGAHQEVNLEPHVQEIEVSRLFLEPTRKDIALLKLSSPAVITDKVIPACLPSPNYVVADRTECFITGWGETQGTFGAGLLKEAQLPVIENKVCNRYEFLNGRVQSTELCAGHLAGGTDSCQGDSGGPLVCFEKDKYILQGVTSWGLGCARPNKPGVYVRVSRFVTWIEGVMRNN
Sequence of Tissue-type plasminogen activator (Homo sapiens) (P00750 36-562 limits assumed): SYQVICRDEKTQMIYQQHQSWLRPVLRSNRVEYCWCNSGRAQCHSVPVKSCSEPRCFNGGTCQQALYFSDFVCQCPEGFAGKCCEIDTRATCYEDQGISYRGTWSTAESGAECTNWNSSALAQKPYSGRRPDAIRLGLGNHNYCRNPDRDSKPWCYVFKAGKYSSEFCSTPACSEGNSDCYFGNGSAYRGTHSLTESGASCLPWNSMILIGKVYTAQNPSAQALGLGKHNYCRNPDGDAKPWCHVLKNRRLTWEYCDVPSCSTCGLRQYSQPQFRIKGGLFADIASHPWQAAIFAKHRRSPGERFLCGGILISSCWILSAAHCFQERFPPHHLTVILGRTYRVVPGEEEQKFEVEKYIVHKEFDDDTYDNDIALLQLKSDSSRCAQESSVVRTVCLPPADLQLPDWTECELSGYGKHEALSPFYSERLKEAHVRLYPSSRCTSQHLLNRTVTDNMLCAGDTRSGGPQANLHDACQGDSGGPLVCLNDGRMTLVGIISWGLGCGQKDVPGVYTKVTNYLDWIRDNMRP
Sequence of Coagulation factor XI (Homo sapiens) (P03951 19-387 limits assumed): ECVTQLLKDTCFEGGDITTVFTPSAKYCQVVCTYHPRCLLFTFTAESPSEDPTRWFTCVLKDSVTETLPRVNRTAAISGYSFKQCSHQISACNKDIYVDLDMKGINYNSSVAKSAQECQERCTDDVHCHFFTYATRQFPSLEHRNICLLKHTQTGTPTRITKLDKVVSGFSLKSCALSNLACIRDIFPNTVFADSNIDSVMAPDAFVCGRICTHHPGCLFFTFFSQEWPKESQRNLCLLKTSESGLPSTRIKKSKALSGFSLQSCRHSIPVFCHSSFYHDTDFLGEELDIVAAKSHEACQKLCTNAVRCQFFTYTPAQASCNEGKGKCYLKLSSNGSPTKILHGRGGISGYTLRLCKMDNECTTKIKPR
Sequence of Coagulation factor XI (Homo sapiens) (P03951 388-625 limits assumed): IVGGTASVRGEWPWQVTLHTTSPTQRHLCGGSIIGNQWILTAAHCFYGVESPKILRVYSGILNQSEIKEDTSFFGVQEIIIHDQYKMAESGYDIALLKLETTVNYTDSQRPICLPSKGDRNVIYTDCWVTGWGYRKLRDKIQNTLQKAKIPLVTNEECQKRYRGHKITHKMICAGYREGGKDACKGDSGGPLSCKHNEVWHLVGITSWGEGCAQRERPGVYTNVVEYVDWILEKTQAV
Sequence of Coagulation factor X (Homo sapiens) (P00742 41-179 limits assumed): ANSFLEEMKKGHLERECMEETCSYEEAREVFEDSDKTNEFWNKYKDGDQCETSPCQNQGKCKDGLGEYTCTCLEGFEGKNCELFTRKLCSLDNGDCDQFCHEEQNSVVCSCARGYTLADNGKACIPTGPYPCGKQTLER
Sequence of Coagulation factor X (Homo sapiens) (P00742 235-488 limits assumed): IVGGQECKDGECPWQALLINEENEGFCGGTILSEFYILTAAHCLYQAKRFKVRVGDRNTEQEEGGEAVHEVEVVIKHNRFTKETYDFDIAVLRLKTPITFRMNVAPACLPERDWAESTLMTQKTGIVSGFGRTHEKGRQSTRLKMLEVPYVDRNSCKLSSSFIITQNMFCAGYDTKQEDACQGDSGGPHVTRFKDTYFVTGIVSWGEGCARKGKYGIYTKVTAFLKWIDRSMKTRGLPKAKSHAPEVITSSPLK

CC(C)C[C@@H]1NC(=O)[C@H](CCC(N)=O)NC(=O)[C@H](CCCNC(=N)N)NC(=O)[C@@H]2CSCCC(=O)N3CN(CN(C3)C(=O)CCSC[C@H](NC(=O)[C@@H](N)CCNC(=N)N)C(=O)N[C@@H](Cc3ccc(F)cc3)C(=O)N[C@@H](CCCNC(=N)N)C(=O)N[C@@H](CC(C)C)C(=O)N3CCC[C@H]3C(=O)N2)C(=O)CCSC[C@@H](C(=O)N[C@@H](CCCNC(=N)N)C(=O)O)NC(=O)[C@H](CCCNC(=N)N)NC1=O
inhibition [1]: < 20%
Selectivity ratio (Homo sapiens [2]): 27000
inhibition [3]: < 20%
inhibition (Homo sapiens [4]): > 50%
inhibition [5]: < 20%
Ki (Coagulation factor XII): 1.63 nM
Selectivity ratio (Homo sapiens [6]): 27000
inhibition [7]: < 20%
Selectivity ratio (Homo sapiens [8]): 27000
half-life at 10 µM [9]: 16 h
Selectivity ratio (Homo sapiens [10]): 27000
Ki [11]: 1300 nM
Selectivity ratio (Homo sapiens [12]): 27000
inhibition [13]: < 20%
inhibition (Plasma kallikrein [14]): > 50%
inhibition [15]: < 20%
Selectivity ratio (Homo sapiens [16]): 27000
Selectivity ratio (Homo sapiens [17]): 27000
Activity (Plasma [18]): inactive
Selectivity ratio (Homo sapiens [19]): 27000
2aPTT (Plasma [20]): 2 µM
Activity (Plasma [20]): Dose-dependent effect
inhibition [21]: < 20%
Ki (Plasma kallikrein [22]): 45100 nM
Selectivity ratio (Homo sapiens [23]): 800
